{
  "source": "patent US20130281493A1",
  "about": "“Method for Treating Cancer Harboring a p53 Mutation” (The Trustees of The University of Columbia in the City of …, priority 2010, published 2013)",
  "key": {"MDA-468 cells": {"test_system": "MDA-468 cells", "assay": "3D culture of MDA-468 breast cancer cells (growth, morphology)", "assay_type": "cell-based", "description": "(§1) Cells were then seeded at a density of 5,000 cells/well in Assay Medium (DMEM/F12+2% Horse Serum+10 μg/ml Insulin+0.5 μg/ml Hydrocortisone [+5 ng/ml EGF for MCF10A cultures]) containing 2% Matrigel.\n(§2) Cells were fixed using 2% formaldehyde at room temperature for at least 30 min. […] Primary antibodies were incubated with the cultures for 1-2 hr at room temperature, followed by washing, and addition of fluorescently-conjugated secondary antibodies for 40 min at room temperature. Nuclei were counterstained with DRAQ5 (Cell Signaling #4084) or Propidium Iodide (Sigma #P4170). Confocal microscopy was conducted using an Olympus IX81 confocal microscope and analyzed using Fluoview software.\n(§3) Cells were treated on Day 1 or Day 4 of the 3D protocol (as described in the figure legends) and refed every 4 days with fresh drug. […] This range approximates clinically achievable serum concentrations in human patients (Dimitroulakos et al., 1999; Wong et al., 2002), • 6-Fluoromevalonate (200 μM) as previously described (Cuthbert and Lipsky, 1990) and YM-53601, FTI-277 or GTI-2133 at or above their reported IC50 in cells (Lerner et al., 1995; Ugawa et al., 2000; Vasudevan et al., 1999), and with • Fatostatin at either 2 μM or 20 μM as previously described (Kamisuki et al., 2009)."}, "MDA-231 cells [1]": {"test_system": "MDA-231 cells", "assay": "3D culture of MDA-231 breast cancer cells (growth, invasive morphology)", "assay_type": "cell-based", "description": "as §1, §2, §3"}, "squalene synthase": {"target": "T1, squalene synthase (Homo sapiens, UniProt P37268)", "T1 sequence (P37268 1-417)": "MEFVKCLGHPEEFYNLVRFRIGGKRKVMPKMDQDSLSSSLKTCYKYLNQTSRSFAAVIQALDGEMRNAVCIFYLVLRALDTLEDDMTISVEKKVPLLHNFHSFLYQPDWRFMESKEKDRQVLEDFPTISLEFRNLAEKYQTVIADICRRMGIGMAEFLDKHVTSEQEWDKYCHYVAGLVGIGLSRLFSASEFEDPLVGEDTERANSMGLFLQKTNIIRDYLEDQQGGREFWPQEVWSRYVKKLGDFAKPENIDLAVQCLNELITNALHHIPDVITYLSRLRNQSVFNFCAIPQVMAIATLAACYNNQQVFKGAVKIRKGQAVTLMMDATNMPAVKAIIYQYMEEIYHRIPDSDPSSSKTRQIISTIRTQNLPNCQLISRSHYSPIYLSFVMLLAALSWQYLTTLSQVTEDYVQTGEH", "settings": "Ugawa et al., 2000; cited from earlier work"}, "MCF10A cells": {"test_system": "MCF10A cells", "assay": "3D culture of non-malignant MCF10A mammary epithelial cells (acinar morphology, luminal clearance)", "assay_type": "cell-based, human", "settings": "1 mM, 8 days", "description": "Cells were fixed using 2% formaldehyde at room temperature for at least 30 min. […] Primary antibodies were incubated with the cultures for 1-2 hr at room temperature, followed by washing, and addition of fluorescently-conjugated secondary antibodies for 40 min at room temperature. Nuclei were counterstained with DRAQ5 (Cell Signaling #4084) or Propidium Iodide (Sigma #P4170). Confocal microscopy was conducted using an Olympus IX81 confocal microscope and analyzed using Fluoview software. Cells were treated on Day 1 or Day 4 of the 3D protocol (as described in the figure legends) and refed every 4 days with fresh drug. […] This range approximates clinically achievable serum concentrations in human patients (Dimitroulakos et al., 1999; Wong et al., 2002), • 6-Fluoromevalonate (200 μM) as previously described (Cuthbert and Lipsky, 1990) and YM-53601, FTI-277 or GTI-2133 at or above their reported IC50 in cells (Lerner et al., 1995; Ugawa et al., 2000; Vasudevan et al., 1999), and with • Fatostatin at either 2 μM or 20 μM as previously described (Kamisuki et al., 2009)."}, "MDA-468.shp53 cells": {"test_system": "MDA-468.shp53 cells", "assay": "Add-back in 3D culture of MDA-468.shp53 cells depleted of mutant p53 (+DOX)", "assay_type": "cell-based", "settings": "MVA and MVAP added together, 1 mM each, from Day 1, 8 days", "quoted_text": "(§4) Three-dimensional culture was carried out as previously described (Debnath et al., 2003). Briefly, 8-well chamber slides were lined with 50 μl growth factor reduced Matrigel (BD Biosciences). […] Cells were refed with Assay Medium containing 2% Matrigel every 4 days. For RNA/protein analysis from 3D cultures, 35 mm plates were lined with 500 μl Matrigel and cells were seeded at a density of 225,000 cells/plate in Assay Medium+2% Matrigel. Cells were harvested using Cell Recovery Solution (BD Biosciences) according to the manufacturer's instructions."}, "MDA-231.shp53 cells": {"test_system": "MDA-231.shp53 cells", "settings": "25 μM from Day 1, 8 days, +DOX", "quoted_text": "as §4"}, "MDA-231 cells [2]": {"test_system": "MDA-231 cells", "assay": "MDA-231 subcutaneous tumor growth in NOD-SCID mice", "assay_type": "in vivo", "settings": "200 mg/kg/day, after 21 days of treatment", "quoted_text": "2×10^6 MDA-231 cells were injected subcutaneously into 8 week-old NOD-SCID mice. […] Tumor measurements were performed weekly using calipers. After 21 days of treatment, mice were sacrificed and tumors were extracted and weighed. Tumor volumes as a function of time (left) and tumor weights at day 21 (right) are presented. *denotes p<0.01, **denotes p<0.001 using a two-tailed students t-test. […] 2×10^6 MDA-231 cells were injected subcutaneously into 8 week-old NOD-SCID mice. […] Tumor measurements were performed weekly using calipers. After 21 days of treatment, mice were sacrificed and tumors were extracted and weighed. Tumor volumes as a function of time (left) and tumor weights at day 21 (right) are presented. *denotes p<0.01, **denotes p<0.001 using a two-tailed students t-test."}, "[3]": {"assay": "Serum level at the dose used in the mouse experiments", "assay_type": "in vivo", "settings": "mice, 200 mg/kg/day"}, "farnesyltransferase": {"target": "farnesyltransferase (Homo sapiens, UniProt P49354+P49356)", "settings": "whole cells; Lerner et al., 1995; cited from earlier work"}, "[4]": {"target": "geranylgeranyl transferase (Homo sapiens, UniProt P49354+P53609)", "settings": "low micromolar concentrations; Lerner et al., 1995; cited from earlier work"}, "squalene synthesis": {"test_system": "squalene synthesis", "settings": "low micromolar concentrations; Lerner et al., 1995; cited from earlier work"}},
  "data": [
    {"smiles": "CC[C@H](C)C(=O)O[C@H]1CCC=C2C=C[C@H](C)[C@H](CC[C@@H]3C[C@@H](O)CC(=O)O3)[C@H]21", "note": "[Mevastatin]", "values": [
      {"measurement": "3D morphology of MDA-468 cells", "setting": "MDA-468 cells; 1 μM, added Day 4, 13 days", "value": "profoundly affects"},
      {"measurement": "3D morphology of MDA-231 cells", "setting": "MDA-231 cells [1]; 1 μM, added Day 4, 13 days", "value": "profoundly affects"}
    ]},
    {"smiles": "F/C(COc1ccc2c(c1)[nH]c1ccccc12)=C1/CN2CCC1CC2", "note": "[YM-53601]", "values": [
      {"measurement": "effect on growth of MDA-231 cells in 3D culture", "setting": "MDA-231 cells [1]; 1 uM, added Day 1, 8 days", "value": "only a mild effect"},
      {"measurement": "killing of cancer cells in 3D culture", "setting": "MDA-231 cells [1]; 10 uM", "value": "killed all the cancer cells"},
      {"measurement": "concentrations that inhibit squalene synthase", "setting": "squalene synthase", "value": "submicromolar"}
    ]},
    {"smiles": "C[C@@](O)(CCO)CC(=O)O", "note": "(racemic) [mevalonic acid]", "values": [
      {"measurement": "rescue of the phenotypic effects of statin treatment in 3D culture", "setting": "MDA-468 cells; MDA-468 treated with Simvastatin 1 μM, supplemented", "value": "blocked many of the phenotypic effects of statins"},
      {"measurement": "rescue of the phenotypic effects of statin treatment in 3D culture", "setting": "MDA-231 cells [1]; MDA-231 treated with Simvastatin 1 μM, supplemented", "value": "blocked many of the phenotypic effects of statins"},
      {"measurement": "luminal clearance in MCF10A cells", "setting": "MCF10A cells", "value": "sufficient to block luminal clearance"},
      {"measurement": "effect on phenotypic reversion caused by mutant p53 knockdown", "setting": "MDA-468.shp53 cells", "value": "dramatically inhibit"}
    ]},
    {"smiles": "CC(C)=CCC/C(C)=C/CC/C(C)=C/CC/C(C)=C/COP(=O)(O)OP(=O)(O)O", "note": "[Geranylgeranyl pyrophosphate]", "values": [
      {"measurement": "rescue of the morphological effects of HMG-CoA reductase inhibition", "setting": "MDA-231 cells [1]; MDA-231 with Simvastatin 1 μM, 25 μM GGPP, 8 days", "value": "partially rescue"},
      {"measurement": "rescue of the morphological effects of mutant p53 depletion", "setting": "MDA-231.shp53 cells", "value": "partially rescue"}
    ]},
    {"smiles": "O=C(O)CC(O)(CF)CCO", "note": "(stereo not drawn) [6-fluoromevalonate, 6-Fluoromevalonate]", "values": [
      {"measurement": "phenotypic effects in 3D culture compared with HMG-CoA reductase inhibition by statins", "setting": "MDA-468 cells; MDA-468, 200 μM, added Day 1, 8 days", "value": "remarkably similar phenotypic effects"},
      {"measurement": "phenotypic effects in 3D culture compared with HMG-CoA reductase inhibition by statins", "setting": "MDA-231 cells [1]; MDA-231, 200 μM, added Day 1, 8 days", "value": "remarkably similar phenotypic effects"}
    ]},
    {"smiles": "CCC(C)(C)C(=O)O[C@H]1C[C@@H](C)C=C2C=C[C@H](C)[C@H](CC[C@@H]3C[C@@H](O)CC(=O)O3)[C@H]21", "note": "[Simvastatin]", "values": [
      {"measurement": "reduction of tumor size", "setting": "MDA-231 cells [2]", "value": "about 40%"},
      {"measurement": "serum levels", "setting": "[3]", "value": "about 100 micromolar"}
    ]},
    {"smiles": "COC(=O)[C@H](CCSC)NC(=O)c1ccc(NC[C@@H](N)CS)cc1-c1ccccc1", "note": "[FTI-277]", "values": [
      {"measurement": "effect on growth of MDA-231 cells in 3D culture", "setting": "MDA-231 cells [1]; 1 uM, added Day 1, 8 days", "value": "only a mild effect"},
      {"measurement": "concentrations that block farnesylation via inhibition of farnesyltransferase", "setting": "farnesyltransferase", "value": "nanomolar"},
      {"measurement": "effect on geranylgeranyl transferase", "setting": "[4]", "value": "no effect"},
      {"measurement": "effect on squalene synthesis", "setting": "squalene synthesis", "value": "no effect"}
    ]},
    {"smiles": "CC(C)C[C@H](NC(=O)c1ccc(NCc2cnc[nH]2)cc1-c1cccc2ccccc12)C(=O)O", "note": "[GTI-2133]", "values": [
      {"measurement": "effect on growth of MDA-231 cells in 3D culture", "setting": "MDA-231 cells [1]; 1 uM, added Day 1, 8 days", "value": "profound impact"},
      {"measurement": "effect on invasive morphology of MDA-231 cells in 3D culture", "setting": "MDA-231 cells [1]; 1 uM, added Day 1, 8 days", "value": "profound impact"}
    ]}
  ]
}
